Experimental data published in patent US6919424B2, “Binding peptides for carcinoembryonic antigen (CEA)” (Dyax Corp., priority 2000, dated 2005).

Tests used:
CEA [1] = target: T1, CEA (Homo sapiens, UniProt P06731); assay: Fluorescence anisotropy direct binding to CEA; settings: compared with binding to NA3
T1 construct: purchased
T1 sequence (P06731 35-676): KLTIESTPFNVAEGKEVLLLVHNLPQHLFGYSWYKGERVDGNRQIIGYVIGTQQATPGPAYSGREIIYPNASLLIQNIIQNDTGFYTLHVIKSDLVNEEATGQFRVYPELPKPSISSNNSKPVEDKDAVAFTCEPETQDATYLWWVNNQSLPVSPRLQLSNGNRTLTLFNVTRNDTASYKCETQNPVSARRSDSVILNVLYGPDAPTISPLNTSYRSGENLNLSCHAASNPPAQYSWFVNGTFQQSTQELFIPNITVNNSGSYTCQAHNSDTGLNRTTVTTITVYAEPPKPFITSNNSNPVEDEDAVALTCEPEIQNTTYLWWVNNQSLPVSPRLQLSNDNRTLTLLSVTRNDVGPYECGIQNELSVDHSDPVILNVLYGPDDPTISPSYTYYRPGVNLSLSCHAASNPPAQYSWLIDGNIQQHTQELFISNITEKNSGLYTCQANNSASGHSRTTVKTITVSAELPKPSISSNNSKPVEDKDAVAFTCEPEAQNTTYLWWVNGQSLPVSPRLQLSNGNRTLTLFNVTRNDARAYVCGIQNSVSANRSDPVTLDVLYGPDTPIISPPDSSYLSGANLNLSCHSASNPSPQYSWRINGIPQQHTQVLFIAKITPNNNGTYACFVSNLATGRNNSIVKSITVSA
Method: Dissociation constants were determined using fluorescence anisotropy, through direct binding measurements to either NA-3 or CEA in PBS with 0.01% TWEEN 20. In direct binding assays, the concentration of the fluorescein-labeled peptide is held constant and the concentration of NA3 is varied. In the competition experiment, the concentration of the fluorescein-labeled peptide and the NA3 target are held constant and the concentration of competitor peptide (from Isolate 12-H12) is varied. The change in anisotropy is fit to the appropriate equation via nonlinear regression to obtain the apparent Kd. Isolate 304A-12-H12, previously isolated from Lib2 and assayed for binding, was analyzed in parallel as a control. Replicate analyses were run for certain binders and are reported to confirm accuracy and precision of measurements. KD standard error values are calculated from the nonlinear regression (SIGMAPLOT, SPSS Science, Chicago, Ill.).

NA3 = target: T2, NA3 (Homo sapiens, UniProt P06731); assay: Phage ELISA with varying amounts of NA3 per well (FIGS. 2, 4, 5); format: binding; settings: FIG. 2; 100, 50, 10, 5, 1, 0 ng per well
T2 construct: H6NA3, consisting of a hexahistidine leader and the N and A3 domains of CEA, was used
T2 sequence (P06731 35-144 limits assumed): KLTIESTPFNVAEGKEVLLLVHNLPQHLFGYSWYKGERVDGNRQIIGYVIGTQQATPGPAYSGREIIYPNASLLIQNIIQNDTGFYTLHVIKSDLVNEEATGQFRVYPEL
T2 sequence (P06731 501-588 limits assumed): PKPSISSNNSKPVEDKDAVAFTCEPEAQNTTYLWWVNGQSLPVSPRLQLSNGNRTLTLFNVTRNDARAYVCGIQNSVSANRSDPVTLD
Method: The first bar for each sample represents wells each having 100 ng CEA. Successive bars represent 50 ng, 10 ng, 5 ng, 1 ng, and 0 ng CEA per well.
The first bar for each sample represents wells each having 30 ng NA3. Successive bars represent 10 ng, 3 ng, and 0 ng NA3 per well.
Several Isolates gave especially strong ELISA signals and these were tested further.
Several Isolates gave especially strong ELISA signals and these were tested further. […] Isolate 304A-12-H12 (designated DX306) was assayed in parallel as a basis for comparison.

H6NA3 = target: T3, H6NA3 (Homo sapiens, UniProt P06731); assay: Fluorescence anisotropy direct binding to H6NA3 / NA3; settings: from KD of Table 7 versus Table 3
T3 construct: H6NA3, consisting of a hexahistidine leader and the N and A3 domains of CEA, was used
T3 sequence (P06731 35-144 limits assumed): T2 sequence (P06731 35-144 limits assumed)
T3 sequence (P06731 501-588 limits assumed): T2 sequence (P06731 501-588 limits assumed)
Method: (§1) Each peptide was also provided with a C-terminal amide-functional linker useful for immobilizing peptides to various chromatographic substrates: -Ala18-Pro19-Gly20-Gly-Glu-Gly-Gly-Gly-Ser-Lys-CONH2 (SEQ ID NO:28). […] Aliquots of each peptide were fluorescently labeled using NHS-fluorescein reacted with the ε-amino side group of the C-terminal lysine.
Dissociation constants were determined using fluorescence anisotropy, through direct binding measurements and competition experiments. In direct binding assays, the concentration of the fluorescein-labeled peptide is held constant and the concentration of H6NA3 is varied. In the competition experiment, the concentration of the fluorescein-labeled peptide and the H6NA3 target are held constant and the concentration of a competitor (cT84.66, unlabeled) is varied. The change in anisotropy is fit to the appropriate equation via nonlinear regression to obtain the apparent Kd.
Aliquots of each peptide were fluorescently labeled using NHS-fluorescein reacted with the ε-amino side group of the C-terminal lysine.
Dissociation constants were determined using fluorescence anisotropy, through direct binding measurements (see Example 6).
as §1, with “Peptides including the binding domain of the CEA binder Isolates were synthesized by solid-phase synthesis. Each” for “Each”
Dissociation constants were determined using fluorescence anisotropy, through direct binding measurements to either NA-3 or CEA in PBS with 0.01% TWEEN 20. […] Isolate 304A-12-H12, previously isolated from Lib2 and assayed for binding, was analyzed in parallel as a control. […] KD standard error values are calculated from the nonlinear regression (SIGMAPLOT, SPSS Science, Chicago, Ill.).

CEA [2] = target: T1, CEA; assay: Later evaluation of CEA binding, method not given

Compound	binding to CEA (in words) (CEA [1])	phage ELISA binding profile to varying amounts of NA3 (NA3)	increase in affinity compared to the Isolate G08 peptide (H6NA3) [fold]	binding to CEA with useful affinity (CEA [2])
CC(C)C[C@H](NC(=O)[C@@H](NC(=O)[C@H](CC(N)=O)NC(=O)[C@@H]1CSSC[C@H](NC(=O)[C@@H](NC(=O)[C@H](Cc2c[nH]c3ccccc23)NC(=O)[C@H](CC(=O)O)NC(=O)[C@@H](N)CO)C(C)C)C(=O)N[C@@H](CCC(=O)O)C(=O)N[C@@H](Cc2ccc(O)cc2)C(=O)N[C@@H](Cc2ccccc2)C(=O)N[C@@H](CCCCN)C(=O)N[C@@H](CC(N)=O)C(=O)N[C@@H](CCC(N)=O)C(=O)N[C@@H](Cc2c[nH]c3ccccc23)C(=O)N[C@@H](Cc2ccccc2)C(=O)N1)C(C)C)C(=O)N[C@@H](C)C(=O)N1CCC[C@H]1C(=O)NCC(=O)NCC(=O)N[C@@H](CCC(=O)O)C(=O)NCC(=O)NCC(=O)NCC(=O)N[C@@H](CO)C(=O)N[C@@H](CCCCNC(=O)c1ccc2c(c1)C(=O)OC21c2ccc(O)cc2Oc2cc(O)ccc21)C(N)=O [Isolate 304A-12-H12, DWVCEYFKNQWFCNVL]	effectively bound CEA, but not as strongly as they bound NA3	do not drop off so quickly	8	
-RYCEFFPWSLHCGRP (Isolate of TN10/9 library found not to bind CEA) [Isolate B10]				not to bind CEA with useful affinity
NWRCKLFPRYPYCSSW (Isolate of TN10/9 library found not to bind CEA) [Isolate G01]				not to bind CEA with useful affinity
